Measured values reported in patent publication US11974995B1, “6′-(4-bromophenyl)-2′-methoxy-3,4′-bipyridine-3′-carbonitrile as an antioxidant compound” (KING FAISAL UNIVERSITY, priority 2023, dated 2024).

Assay: DPPH radical scavenging antioxidant test
Details: 517 nm; for Inhibition (radical scavenging inhibition): 0.2 mL DPPH (0.75 mM), compound 3 μM in ethanol, 30 minutes in the dark
Protocol: The antioxidant activity of 6′-(4-bromophenyl)-2′-methoxy-3,4′-bipyridine-3′-carbonitrile was investigated by 2,2-diphenyl-1-picrylhydrazyl (DPPH) in vitro tests that employ vitamin C as the positive control.
The antioxidant properties of the 6′-(4-bromophenyl)-2′-methoxy-3,4′-bipyridine-3′-carbonitrile compound were studied by adding 0.2 mL DPPH (0.75 mM)) to 6′-(4-bromophenyl)-2′-methoxy-3,4′-bipyridine-3′-carbonitrile (3 μM) (4) in ethanol. After 30 minutes of incubation in the dark, the absorbance was read against a blank at 517 nm. Ascorbic acid (vitamin C) was used as standard antioxidants (positive control). A blank sample was prepared by 0.2 mL of DPPH in 3 mL ethanol. A negative control sample was run using ethanol instead of the sample. The radical scavenging inhibition was calculated using the following equation: […]
The antioxidant activity for the synthesized compound is listed in Table 1, using Vitamin C as a reference.

| SMILES | Inhibition (radical scavenging inhibition) [%] | antioxidant potential to vanish the DPPH radical colors, compared to vitamin C (DPPH in vitro test, vitamin C as positive control) |
| --- | --- | --- |
| COc1nc(-c2ccc(Br)cc2)cc(-c2cccnc2)c1C#N [Product 4, 6′-(4-bromophenyl)-2′-methoxy-3,4′-bipyridine-3′-carbonitrile] | 50 | high potential as an antioxidant compared to vitamin C |
| O=C1O[C@H]([C@@H](O)CO)C(O)=C1O [vit c, Ascorbic acid, reference compound] | 74 |  |
